Consider 15 molecules from paper PMC7179198, “Chiral Pyridine-3,5-bis- (L-phenylalaninyl-L-leucinyl) Schiff Base Peptides as Potential Anticancer Agents: Design, Synthesis, and Molecular Docking Studies Targeting Lactate Dehydrogenase-A” (Molecules, 2020).

Data set [1] deals with non-tumorigenic MCF-10A cells. The experiment in a line: Cytotoxicity against normal non-tumorigenic MCF-10A cells (MTT). The class given is cell-based. The following applies: MCF-10A vs MCF-7. The source says:
(§1) Following the synthesis of the new bis-dipeptide derivatives, we evaluated the anticancer potentials of these derivatives in vitro against breast cancer cells (MCF-7) as well as normal non tumorigenic MCF-10A cells. The obtained results were expressed as IC50 values in µM and were also compared for both cell lines with positive reference controls; that is cisplatin and milaplatin. Generally, it can be seen that our newly synthesized bis-dipeptides have potential anticancer activities against MCF-7 cells.
The fact that normal cells are usually less affected by possible anticancer candidates may be attributed to the fact that, upon cancer initiation and development, cancer cells overcome normal growth regulation pathways present in normal cells, and thusthey tend to be affected by other different regulatory growth pathways, which are not evident in the case of normal cells.
(§2) The results were expressed as IC50. Experiments were repeated at least in triplicate, to obtain good reproducibility between replicate wells with standard errors below 10%. Furthermore, the cytotoxic effects of the prepared derivatives were evaluated against normal nonmalignant cells, non-tumorigenic MCF-10A, in order to find out if the synthesized derivatives have toxicity against normal cells. Additionally, the results were compared with reference compounds (cisplatin and milaplatin) as positive controls.

Data set [2] has as its system breast cancer cells (MCF-7). The experiment in a line: In vitro cytotoxic activity against MCF-7 cancer cells (MTT). The class given is cell-based, human. The following applies: for IC50: MCF-7, MTT.
Source text: as §1
Human breast cancer (MCF-7) cells, obtained from Sigma-Aldrich Chemie GmbH, Taufkirchen, Germany, were propagated in RPMI-1640 supplemented with 10% heat inactivated FBS, 2 mM L-glutamine, and 1% standard antibiotic solution. Cells were incubated in a 5% CO2humidified incubator at 37 °C and passaged bi-weekly. The in vitro anti-proliferative activity of the newly synthesized derivatives was assayed using the standard MTT technique.
as §2

Data set [3] has as its system p53 ubiquitination. The experiment in a line: In vitro p53 ubiquitination inhibition. The class given is biochemical. As to conditions: read-out: in vitro IC50, suppression of p53 ubiquitination. The source says:
(§3) Several cancer prevention drugs depend mainly on the ubiquitination activities against p53 as a suppressor protein. When E3 ubiquitin protein ligase HDM2 binds to p53, the resulting mechanism is the inhibition of its ability as a transcription activator. Accordingly, the regulative mechanism is acting negatively. Therefore, blocking the p53 binding site on HDM2 provides for a better possible antitumorigenic molecule. Currently, murine double minute 2 (MDM2) is considered as the regulator of choice when it comes to investigatingp53 inhibition.
(§4) Different prepared derivatives 4–6 were evaluated for their inhibitory potential against p53 ubiquitination according to the previously reported procedure.

Data set [4] has as its system p53 ubiquitination. The experiment in a line: In vivo p53 ubiquitination inhibition. As to conditions: read-out: in vivo IC50, suppression of p53 ubiquitination.
Source text: as §3, §4

Data set [5] deals with T1, recombinant human LDHA protein (Homo sapiens, UniProt P00338).
T1 construct: purchased Abcam ab93699
Nature of the data set: LDHA inhibition assay (colorimetric NADH kit). The class given is biochemical. The following applies: recombinant human LDHA. Here is the method: The newly synthesized compounds 4–6 were evaluated for their ability to inhibit LDHA in comparison with galloflavin as a known isoform nonselective LDHA inhibitor [44, 45]. The choice of galloflavin as a reference was based on the fact that it is potent anticancer agent and commercially available.
Lactate dehydrogenase assay kit (Abcam, ab102526) and recombinant human LDHA protein (Abcam, ab93699) were used to assess the inhibitory effect of the tested compounds. First, we generated an NADH standard curve for colorimetric detection by measuring the OD (450 nm) at different molar amounts of NADH. The linear regression equation of the curve was derivatized in Graphpad Prism. Tested compounds were dissolved in DMSO and their inhibitory activity was assessed at 140 and 300 μM strength. Galloflavin (Sigma, SML0776) at the same molar concentration was used as a known LDH inhibitor. The master reaction mix composed of LDH assay buffer and 10 ng human LDHA […] per reaction was prepared. Tested compounds were added and the final reaction volume was adjusted to 50 μL. Absorbance at 450 nm was taken after 2–3 min (T-initial) and continued every minute for 118 min (T-final). The change in measurement over time (delta A450) was calculated as T-final minus T-initial. The amount of NADH generated by the assay between T-initial and T-final was deduced by comparing the A450 of each sample to the standard NADH standard curve. LDHA activity was calculated in milliunits per mL as the amount of NADH generated by the assay / (reaction time in minutes (118) x reaction volume in mL ([…]).

A word on the melting point: it is the temperature of the solid-liquid transition. A word on the IC50: it is the point on the concentration scale where inhibition reaches its midpoint.

Regarding `CC(=NNC(=O)C(CC(C)C)NC(=O)C(Cc1ccccc1)NC(=O)c1cncc(C(=O)NC(Cc2ccccc2)C(=O)NC(CC(C)C)C(=O)NN=C(C)c2ccncc2)c1)c1ccncc1` (stereo not drawn) (hydrate or solvate) [4c, N^3,N^5-Bis{1-[(4-methyl-1-oxo-1-(2-(1-(pyridin-4-yl)ethylidene)hydrazinyl)pentan-2-yl)-amino]-1-oxo-3-phenylpropan-2-yl}pyridine-3,5-dicarboxamide], the melting point is 196 to 198 °C.
Turning to `CC(=NNC(=O)C(CC(C)C)NC(=O)C(Cc1ccccc1)NC(=O)c1cncc(C(=O)NC(Cc2ccccc2)C(=O)NC(CC(C)C)C(=O)NN=C(C)c2cccnc2)c1)c1cccnc1` (stereo not drawn) [4b, N^3,N^5-Bis{1-[(4-methyl-1-oxo-1-(2-(1-(pyridin-3-yl)ethylidene)hydrazinyl)pentan-2-yl)-amino]-1-oxo-3-phenylpropan-2-yl}pyridine-3,5-dicarboxamide], the “fold higher IC50 against MCF-10A than MCF-7” value in data set [1] is “about 142.7 fold”. In data set [2] (Homo sapiens, MCF7), this molecule displayed an IC50 of 8.12 ± 0.14 µM. Moreover, the “more active than cisplatin against MCF-7” value in data set [2] (MCF-7, vs cisplatin) is reported as “about 39.1%”. Besides, in data set [2] (MCF-7, vs milaplatin), the “more active than milaplatin against MCF-7” value is listed as roughly 55.9%.
Molecule `CC(C)CC(NC(=O)C(Cc1ccccc1)NC(=O)c1cncc(C(=O)NC(Cc2ccccc2)C(=O)NC(CC(C)C)C(=O)NN=C2CCCCC2)c1)C(=O)NN=C1CCCCC1` (stereo not drawn) [3b, N^3,N^5-Bis{1-[(1-(2-cyclohexylidenehydrazinyl)-4-methyl-1-oxopentan-2-yl)amino]-1-oxo-3-phenylpropan-2-yl}pyridine-3,5-dicarboxamide] yielded a melting point of 198 to 200 °C.
Turning to “N^3,N^5-Bis{1-[(1-(2-(1-(4-methoxyphenyl)ethylidene)hydrazinyl)-4-methyl-1-oxopentan-2-yl)-amino]-1-oxo-3-phenylpropan-2-yl}pyridine-3,5-dicarboxamide [5a]”, the “fold higher IC50 against MCF-10A than MCF-7” value in data set [1] was roughly 145.9 fold. For the same molecule, the results for the IC50 (in data set [2]; in the data set with p53 ubiquitination [3]) were 17.6 ± 0.27 µM and 44.33 ± 0.34 µM, respectively.
`CC(C)CC(NC(=O)C(Cc1ccccc1)NC(=O)c1cncc(C(=O)NC(Cc2ccccc2)C(=O)NC(CC(C)C)C(=O)NN=Cc2cccs2)c1)C(=O)NN=Cc1cccs1` (stereo not drawn) [6b, N^3,N^5-bis{1-[(4-methyl-1-oxo-1-(2-(thiophen-2-ylmethylene)hydrazinyl)pentan-2-yl)amino]-1-oxo-3-phenylpropan-2-yl}pyridine-3,5-dicarboxamide] displayed a melting point of 218 to 220 °C.
`CC(C)CC(NC(=O)C(Cc1ccccc1)NC(=O)c1cncc(C(=O)NC(Cc2ccccc2)C(=O)NC(CC(C)C)C(=O)NN=Cc2ccco2)c1)C(=O)NN=Cc1ccco1` (stereo not drawn) [6a, N^3,N^5-bis{1-[(1-(2-(furan-2-ylmethylene)hydrazinyl)-4-methyl-1-oxopentan-2-yl)amino]-1-oxo-3-phenylpropan-2-yl}pyridine-3,5-dicarboxamide] gave a melting point of 205 to 207 °C. In the data set on p53 ubiquitination [4], the 50% inhibitory concentration (IC50) was determined as 0.31 ± 0.001 µM.
In turn, `CC(=NNC(=O)C(CC(C)C)NC(=O)C(Cc1ccccc1)NC(=O)c1cncc(C(=O)NC(Cc2ccccc2)C(=O)NC(CC(C)C)C(=O)NN=C(C)c2ccc([N+](=O)[O-])cc2)c1)c1ccc([N+](=O)[O-])cc1` (stereo not drawn) (hydrate or solvate) [5e, N^3,N^5-Bis{1-[(4-methyl-1-(2-(1-(4-nitrophenyl)ethylidene)hydrazinyl)-1-oxopentan-2-yl)-amino]-1-oxo-3-phenylpropan-2-yl}pyridine-3,5-dicarboxamide] yielded a melting point of 256 to 258 °C.
The molecule `CC(C)CC(NC(=O)C(Cc1ccccc1)NC(=O)c1cncc(C(=O)NC(Cc2ccccc2)C(=O)NC(CC(C)C)C(=O)NN=C2CCCCCC2)c1)C(=O)NN=C1CCCCCC1` (stereo not drawn) [3c, N^3,N^5-Bis{1-[(1-(2-cycloheptylidenehydrazinyl)-4-methyl-1-oxopentan-2-yl)amino]-1-oxo-3-phenylpropan-2-yl}pyridine-3,5-dicarboxamide] displayed a melting point of 221 to 223 °C.
In the case of `N.N.[Cl][Pt][Cl]` [cisplatin, reference compound], in data set [2], the IC50 was determined as 13.34 ± 0.11 µM.
The molecule `CC(C)CC(NC(=O)C(Cc1ccccc1)NC(=O)c1cncc(C(=O)NC(Cc2ccccc2)C(=O)NC(CC(C)C)C(=O)NN=C2CCCCCCC2)c1)C(=O)NN=C1CCCCCCC1` (stereo not drawn) [3d, N^3,N^5-Bis{1-[(1-(2-cyclooctylidenehydrazinyl)-4-methyl-1-oxopentan-2-yl)amino]-1-oxo-3-phenylpropan-2-yl}pyridine-3,5-dicarboxamide] came in with a melting point of 242 to 244 °C.
On the same count and under the same terms, the result for `CC(=NNC(=O)C(CC(C)C)NC(=O)C(Cc1ccccc1)NC(=O)c1cncc(C(=O)NC(Cc2ccccc2)C(=O)NC(CC(C)C)C(=O)NN=C(C)c2ccccn2)c1)c1ccccn1` (stereo not drawn) (hydrate or solvate) [4a, N^3,N^5-Bis{1-[(4-methyl-1-oxo-1-(2-(1-(pyridin-2-yl)ethylidene)hydrazinyl)pentan-2-yl)amino]-1-oxo-3-phenylpropan-2-yl}pyridine-3,5-dicarboxamide] reads 216 to 218 °C.
Take milaplatin [reference compound]: the IC50 in data set [2] came out at 18.43 ± 0.13 µM.
Turning to `O=c1oc2c(cc1O)oc(=O)c1cc(O)c(O)c(O)c12` [galloflavin, reference compound], in data set [5], the IC50 is 161.1 ± 0.32 µM.
`CC(C)CC(NC(=O)C(Cc1ccccc1)NC(=O)c1cncc(C(=O)NC(Cc2ccccc2)C(=O)NC(CC(C)C)C(=O)NN=C2CCCC2)c1)C(=O)NN=C1CCCC1` (stereo not drawn) [3a, N^3,N^5-Bis{1-[(1-(2-cyclopentylidenehydrazinyl)-4-methyl-1-oxopentan-2-yl]amino)-1-oxo-3-phenylpropan-2-yl}pyridine-3,5-dicarboxamide]: the melting point fell in the range of 232 to 234 °C.
With `CC(=NNC(=O)C(CC(C)C)NC(=O)C(Cc1ccccc1)NC(=O)c1cncc(C(=O)NC(Cc2ccccc2)C(=O)NC(CC(C)C)C(=O)NN=C(C)c2cccnc2)c1)c1cccnc1` (stereo not drawn) (hydrate or solvate) [4b, N^3,N^5-Bis{1-[(4-methyl-1-oxo-1-(2-(1-(pyridin-3-yl)ethylidene)hydrazinyl)pentan-2-yl)-amino]-1-oxo-3-phenylpropan-2-yl}pyridine-3,5-dicarboxamide], the melting point fell in the range of 208 to 210 °C.
